Source: patent US9409905B2, “Antibacterial compounds and methods for use” (PTC THERAPEUTICS, INC., priority 2011, dated 2016)
Values after ≈ are worked out from the molar mass of the structure shown.

What was measured:
E. coli ELZ4000 = test: Antibacterial activity, MIC, multi-drug resistant clinical isolate (Table 3); format: cell-based; conditions: Escherichia coli, ELZ4000, read-out: MIC ELZ4000
Source text: (§1) The antibacterial activity from a microbroth dilution method may be presented as the minimum inhibitory concentration (MIC in μg/mL). The MIC value is the lowest concentration of drug which prevents macroscopically visible growth under test conditions.
(§2) Antibacterial activity of test compounds against E. coli ELZ4000 and E. coli ELZ4251 multi-drug resistant clinical isolates is shown in Table 3.

E. coli ELZ4251 = test: as above; format: cell-based; conditions: Escherichia coli
Source text: as §1, §2

E. coli LZ3111 = test: Antibacterial activity, MIC, quinolone resistant strain (Table 2); format: cell-based; conditions: Escherichia coli, LZ3111, read-out: MIC LZ3111
Summary of the method: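 Lowest concentration giving no macroscopically visible growth was taken as the MIC (μg/mL) after microbroth dilution testing.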

E. coli 25922 = test: Antibacterial activity, microbroth dilution MIC (Table 1); format: cell-based, Escherichia coli; conditions: Escherichia coli; microbroth dilution; control Gram-negative E. coli 25922 strain; read-out: MIC, 25922
Summary of the method: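 Using broth microdilution, MIC endpoints (μg/mL) mark where visible growth no longer appears; the panel spans sensitive and control Gram-negative strains plus a Gram-positive strain.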

[1] = system: Pseudomonas aeruginosa (P. aeruginosa) 27853; test: Antibacterial activity, MIC (Table 5); format: cell-based; conditions: P. aeruginosa 27853, read-out: MIC, 27853
Summary of the method: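 MIC in μg/mL from broth microdilution; endpoint is the lowest drug level giving no visible growth.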

[2] = system: Escherichia coli (E. coli) BAS849; test: Antibacterial activity, microbroth dilution MIC (Table 1); format: cell-based; conditions: microbroth dilution, super sensitive Gram-negative E. coli BAS849, read-out: MIC, BAS849
Summary of the method: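 Broth microdilution; endpoint = no macroscopic growth; value = lowest inhibiting concn, μg/mL.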

[3] = system: Staphylococcus aureus (S. aureus) 29213; test: as above; format: cell-based; conditions: microbroth dilution, Gram-positive S. aureus 29213, read-out: MIC, 29213
Summary of the method: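 In a microbroth dilution test, the minimum inhibitory concentration was defined as the lowest compound level preventing growth seen by eye, and was given in μg/mL.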

[4] = system: Acinetobacter baumannii (A. baumannii) BAA747; test: Antibacterial activity, MIC (Table 4); format: cell-based; conditions: A. baumannii BAA747, read-out: MIC, BAA747
Summary of the method: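 Values are MICs in μg/mL, read as the lowest compound concentration at which no growth is visible by eye. They come from a microbroth dilution method.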

Row | Compound | MIC (E. coli ELZ4000) [µg/mL] | MIC (E. coli ELZ4251) [µg/mL] | MIC (E. coli LZ3111) [µg/mL] | MIC (E. coli 25922) [µg/mL] | MIC [1] [µg/mL] | MIC [2] [µg/mL] | MIC [3] [µg/mL] | MIC [4] [µg/mL]
1 | CCc1c(-c2ccc3c(c2)cc(CN2CCCNCC2)n3C)[nH]c(=O)c(C(=O)O)c1O.Cl.Cl [Cpd 239, 6-(2-((1,4-diazepan-1-yl)methyl)-1-methyl-1H-indol-5-yl)-5-ethyl-4-hydroxy-2-oxo-1,2-dihydropyridine-3-carboxylic acid dihydrochloride] | 12.5 to 150 | 3.5 to 12.5 | 3.5 to 12.5 | 3.5 to 12.5 | 12.5 to 150 | 1 to 3.5 | 12.5 to 150 | –
2 | CCc1c(-c2ccc3c(c2)cc(CN(C)C2CCCNC2)n3C)[nH]c(=O)c(C(=O)O)c1O (stereo not shown) [Cpd 262, 5-ethyl-4-hydroxy-6-(1-methyl-2-((methyl(piperidin-3-yl)amino)methyl)-1H-indol-5-yl)-2-oxo-1,2-dihydropyridine-3-carboxylic acid] | 12.5 to 150 (≈ 28.5 to 342 µM) | 12.5 to 150 (≈ 28.5 to 342 µM) | 3.5 to 12.5 (≈ 7.98 to 28.5 µM) | 3.5 to 12.5 (≈ 7.98 to 28.5 µM) | 12.5 to 150 (≈ 28.5 to 342 µM) | 1 to 3.5 (≈ 2.28 to 7.98 µM) | 12.5 to 150 (≈ 28.5 to 342 µM) | –
3 | Cn1c(CN2CCC2)cc2cc(-c3[nH]c(=O)c(C(=O)O)c(O)c3C3CC3)ccc21 [Cpd 324, 6-(2-(azetidin-1-ylmethyl)-1-methyl-1H-indol-5-yl)-5-cyclopropyl-4-hydroxy-2-oxo-1,2-dihydropyridine-3-carboxylic acid] | 3.5 to 12.5 (≈ 8.9 to 31.8 µM) | 3.5 to 12.5 (≈ 8.9 to 31.8 µM) | 3.5 to 12.5 (≈ 8.9 to 31.8 µM) | 12.5 to 150 (≈ 31.8 to 381 µM) | 12.5 to 150 (≈ 31.8 to 381 µM) | 1 to 3.5 (≈ 2.54 to 8.9 µM) | 12.5 to 150 (≈ 31.8 to 381 µM) | 12.5 to 150 (≈ 31.8 to 381 µM)
4 | CCc1c(-c2ccc3c(c2)cc(CN(C)C2CCNCC2)n3C)[nH]c(=O)c(C(=O)O)c1O [Cpd 261, 5-ethyl-4-hydroxy-6-(1-methyl-2-((methyl(piperidin-4-yl)amino)methyl)-1H-indol-5-yl)-2-oxo-1,2-dihydropyridine-3-carboxylic acid] | 12.5 to 150 (≈ 28.5 to 342 µM) | 12.5 to 150 (≈ 28.5 to 342 µM) | 3.5 to 12.5 (≈ 7.98 to 28.5 µM) | 3.5 to 12.5 (≈ 7.98 to 28.5 µM) | 12.5 to 150 (≈ 28.5 to 342 µM) | 1 to 3.5 (≈ 2.28 to 7.98 µM) | 12.5 to 150 (≈ 28.5 to 342 µM) | –
5 | CCc1c(-c2ccc3c(c2)cc(CNCc2ccccn2)n3C)[nH]c(=O)c(C(=O)O)c1O.Cl [Cpd 219, 5-ethyl-4-hydroxy-6-(1-methyl-2-((pyridin-2-ylmethylamino)methyl)-1H-indol-5-yl)-2-oxo-1,2-dihydropyridine-3-carboxylic acid hydrochloride] | 12.5 to 150 | 12.5 to 150 | 3.5 to 12.5 | 1 to 3.5 | 12.5 to 150 | < 1 | 1 to 3.5 | –
6 | CCc1c(-c2ccc3c(c2)cc(CN2CCCC(O)C2)n3C)[nH]c(=O)c(C(=O)O)c1O (stereo not shown) [Cpd 255, 5-ethyl-4-hydroxy-6-(2-((3-hydroxypiperidin-1-yl)methyl)-1-methyl-1H-indol-5-yl)-2-oxo-1,2-dihydropyridine-3-carboxylic acid] | 12.5 to 150 (≈ 29.4 to 353 µM) | 12.5 to 150 (≈ 29.4 to 353 µM) | 12.5 to 150 (≈ 29.4 to 353 µM) | 1 to 3.5 (≈ 2.35 to 8.23 µM) | 12.5 to 150 (≈ 29.4 to 353 µM) | < 1 | 3.5 to 12.5 (≈ 8.23 to 29.4 µM) | –
7 | CCc1c(-c2ccc3c(c2)cc(CN2C[C@H]4C[C@@H](N)C[C@H]4C2)n3C)[nH]c(=O)c(C(=O)O)c1O [Cpd 287, 6-(2-(((3aR,5r,6aS)-5-aminohexahydrocyclopenta[c]pyrrol-2(1H)-yl)methyl)-1-methyl-1H-indol-5-yl)-5-ethyl-4-hydroxy-2-oxo-1,2-dihydropyridine-3-carboxylic acid] | 12.5 to 150 (≈ 27.7 to 333 µM) | 12.5 to 150 (≈ 27.7 to 333 µM) | 3.5 to 12.5 (≈ 7.77 to 27.7 µM) | 3.5 to 12.5 (≈ 7.77 to 27.7 µM) | 12.5 to 150 (≈ 27.7 to 333 µM) | < 1 | 3.5 to 12.5 (≈ 7.77 to 27.7 µM) | –
8 | CCc1c(-c2ccc3c(c2)cc(CN2C[C@H]4CC[C@@H](N(C)C)[C@H]4C2)n3C)[nH]c(=O)c(C(=O)O)c1O [Cpd 278, 6-(2-(((3aR,4R,6aS)-4-(dimethylamino)hexahydrocyclopenta[c]pyrrol-2(1H)-yl)methyl)-1-methyl-1H-indol-5-yl)-5-ethyl-4-hydroxy-2-oxo-1,2-dihydropyridine-3-carboxylic acid] | 12.5 to 150 (≈ 26.1 to 313 µM) | 12.5 to 150 (≈ 26.1 to 313 µM) | 3.5 to 12.5 (≈ 7.31 to 26.1 µM) | 1 to 3.5 (≈ 2.09 to 7.31 µM) | 12.5 to 150 (≈ 26.1 to 313 µM) | < 1 | 3.5 to 12.5 (≈ 7.31 to 26.1 µM) | –
9 | CCc1c(-c2ccc3c(c2)cc(CN2CCCCC2)n3C)[nH]c(=O)c(C(=O)O)c1N [Cpd 331, 4-amino-5-ethyl-6-(1-methyl-2-(piperidin-1-ylmethyl)-1H-indol-5-yl)-2-oxo-1,2-dihydropyridine-3-carboxylic acid] | 12.5 to 150 (≈ 30.6 to 367 µM) | 12.5 to 150 (≈ 30.6 to 367 µM) | 12.5 to 150 (≈ 30.6 to 367 µM) | 3.5 to 12.5 (≈ 8.57 to 30.6 µM) | 12.5 to 150 (≈ 30.6 to 367 µM) | < 1 | 12.5 to 150 (≈ 30.6 to 367 µM) | –
